# Reference: PubChem BioAssay (NCI)
# Several values for one entry are separate records, joined by “and”; a condition that tells them apart may be missing. Equal values may be shown once.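 Each compound was tested at five concentrations against cells in 96-well plates for 48 hours. GI50 is the concentration that inhibits growth by half. TGI: concentration producing complete growth inhibition.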
# Test system: SNB-19 CNS
# Assay: NCI-60 cell line screen, 48 h
Structure (SMILES),GI50,TGI
COc1ccc(OC)c2c1[nH]c(=O)c1c3ccccc3cn21,1.64 µM,3.4 µM
COc1cccc2c1C(=O)c1c(O)c3c(c(O)c1C2=O)C[C@@](O)(C(=O)CO)C[C@@H]3OC1CC(N)CC(C)O1 (stereo partly drawn),0.0391 µM and 0.0413 µM,2.31 µM and 3.06 µM
CN(C)CCNC(=O)c1cccc2ccc(-c3ccc(O)cc3)nc12,2.41 µM,15.4 µM and 12 µM
COc1cc(Nc2ncccc2C(=O)NCc2cn(Cc3cccc(Oc4ccccc4)c3)nn2)cc(OC)c1,9.64 µM,> 100 µM
COc1cccc(C2CC(C)(O)Oc3cc4c(cc32)OCO4)c1O (stereo not drawn),,> 100 µM
Cn1cc(C2=C(c3ccc(N)cc3)C(=O)NC2=O)c2ccccc21,> 25 µM,> 25 µM
Cc1cc(Cl)cc(OCCn2cc(F)cn2)c1-c1nc(N)nc2c1CN(C(=O)NCC(C)(F)F)C2,0.477 µM,> 100 µM
COc1ccc(/C=C\[N+](=O)[O-])cc1OC,9.75 µM,25.1 µM
CCN(CC)CCC(CNc1ccnc2cc(Cl)ccc12)c1ccc(Cl)cc1 (stereo not drawn),1.98 µM,5.78 µM
COc1cccc(F)c1C(=O)c1cnc(NC2CCN(S(C)(=O)=O)CC2)nc1N,3.46 µM,> 25 µM
COc1cc(OCc2cccc(-c3ccc(C(O)c4nccs4)cc3)c2C)cc(OC)c1C=O (stereo not drawn),3.16 µM,13.4 µM
COC(=O)c1ccc2c(c1)nc(NC(=O)c1ccccc1)n2CCCc1ccccc1,4.25 µM,> 100 µM
O=C(O)COc1ccc2c(=O)c3sc4c(=O)c5ccccc5c(=O)c4c3c(=O)c2c1,7.51 µM,23.7 µM
O=C(Nc1ccc2ncccc2c1)Nc1ccc2ncccc2c1,,> 100 µM
CC1(C)S[C@@H]2[C@H](NC(=O)C3(N)CCCCC3)C(=O)N2[C@H]1C(=O)O,,> 100 µM
NC(=O)/C=C/C(=O)c1c(Cl)cccc1Cl,1.75 µM,3.38 µM
CC1(C)N=C(N)N=C(N)N1c1ccc(CCCCc2ccc(Cl)cc2S(=O)(=O)F)c(Cl)c1,0.76 µM,21.3 µM
O=C(Nc1ccc(Nc2ccncc2)cc1)c1ccc([N+](=O)[O-])cc1,4.47 µM,20.7 µM
C(=NCCN1CCOCC1)=NC1CCCCC1,,> 100 µM
COc1ccccc1/C=N\N/C(N)=N\N=C\c1ccccc1OC,0.376 µM,27.7 µM
Oc1ccc(Nc2ncnc3c2sc2ncccc23)cc1,0.0246 µM,> 100 µM
COc1cccc(CC(C)=C(c2ccc(OCCN(C)C)cc2)c2ccc(OCCN(C)C)cc2)c1,4.38 µM,8.99 µM
COC(=O)COc1ccccc1/C=C1\N=C(c2ccccc2)N(c2cc(C(F)(F)F)ccc2Cl)C1=O,43.5 µM,> 100 µM
C=C1C(=O)OC2CC(C)C(C(CC(C)=O)OC(C)=O)=CCC12 (stereo not drawn),,> 74.9 µM
CC(=O)OC1COC(Oc2c(C)c3c4c(c2O)[C@@H](C)CC[C@@H]4[C@@H](C)C[C@H]3C=C(C)C)C(O)C1OC(C)=O (stereo partly drawn),16 µM,40.1 µM
S=C(Nc1ccc(Cl)cc1)Nc1ccc(-c2nc3ccccc3s2)cc1,19 µM,69.6 µM
COC(=O)C[C@](O)(CCCC(C)(C)O)C(=O)O[C@@H]1C(OC)=C[C@]23CCCN2CCc2cc4c(cc2[C@H]13)OCO4,0.0214 µM,1.29 µM and 1.39 µM

# Test system: UACC-62 melanoma
# Assay: NCI-60 cell line screen, 48 h
Structure (SMILES),GI50,TGI
COc1ccc(OC)c2c1[nH]c(=O)c1c3ccccc3cn21,1.55 µM,2.92 µM
COc1cccc2c1C(=O)c1c(O)c3c(c(O)c1C2=O)C[C@@](O)(C(=O)CO)C[C@@H]3OC1CC(N)CC(C)O1 (stereo partly drawn),0.0308 µM,0.148 µM and 0.0691 µM
CN(C)CCNC(=O)c1cccc2ccc(-c3ccc(O)cc3)nc12,1.6 µM,3.16 µM and 3.83 µM
COc1cc(Nc2ncccc2C(=O)NCc2cn(Cc3cccc(Oc4ccccc4)c3)nn2)cc(OC)c1,3.68 µM,> 100 µM
COc1cccc(C2CC(C)(O)Oc3cc4c(cc32)OCO4)c1O (stereo not drawn),,> 75.9 µM
